{"source": "patent US20260262643A1", "about": "“HERBICIDAL BENZOXAZINES” (FMC CORPORATION, priority 2022, published 2026)", "key": {"oat, wild [1]": {"test_system": "oat, wild", "assay": "Test C preemergence", "assay_type": "in vivo, Avena fatua", "details": "0 to 100 scale (0 no effect, 100 complete control)", "procedure,_shortened": "(§1)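 Seeds in loam–sand blend received preemergence directed soil spray of test chemicals in non-phytotoxic solvent with surfactant; postemergence treatment was applied at one- to two-leaf stage (2–10 cm). After 10 days in greenhouse, injury rated visually versus untreated controls, 0 (no effect) to 100 (complete control).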"}, "green foxtail [2]": {"test_system": "green foxtail", "assay": "Test C preemergence", "assay_type": "in vivo, Setaria viridis", "details": "0 to 100 scale (0 no effect, 100 complete control)", "procedure,_shortened": "as §1"}, "soybean [3]": {"test_system": "soybean", "assay": "Test C postemergence", "assay_type": "in vivo, Glycine max", "details": "10 days", "procedure,_shortened": "as §1"}, "kochia [4]": {"test_system": "kochia", "assay": "Test C postemergence", "assay_type": "in vivo, Bassia scoparia", "details": "10 days", "procedure,_shortened": "as §1"}, "pigweed, palmer [5]": {"test_system": "pigweed, palmer", "assay": "Test C postemergence", "assay_type": "in vivo, Amaranthus palmeri", "details": "10 days", "procedure,_shortened": "as §1"}, "ducksalad": {"test_system": "ducksalad", "assay": "Test D flooded paddy test", "assay_type": "in vivo, Heteranthera limosa", "details": "250 g ai/ha, applied to paddy water, visual rating after 13 to 14 days, scale 0 to 100 (0 no effect, 100 complete control)", "procedure,_shortened": "(§2)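 Seedlings reached the 2-leaf stage, then pots were flooded to 3 cm over the soil surface. Compound was applied into the water, depth was maintained, and plants stayed in the greenhouse 13 to 14 days before visual scoring (0–100) relative to controls.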"}, "wheat [6]": {"test_system": "wheat", "assay": "Test C postemergence", "assay_type": "in vivo, Triticum aestivum", "details": "10 days", "procedure,_shortened": "as §1"}, "soybean [7]": {"test_system": "soybean", "assay": "Test C preemergence", "assay_type": "in vivo, Glycine max", "details": "0 to 100 scale (0 no effect, 100 complete control)", "procedure,_shortened": "as §1"}, "barnyardgrass [8]": {"test_system": "barnyardgrass", "assay": "Test C postemergence", "assay_type": "in vivo, Echinochloa crusgalli", "details": "10 days", "procedure,_shortened": "as §1"}, "ragweed [9]": {"test_system": "ragweed", "assay": "Test C preemergence", "assay_type": "in vivo, Ambrosia artemisiifolia", "details": "0 to 100 scale (0 no effect, 100 complete control)", "procedure,_shortened": "as §1"}, "ragweed [10]": {"test_system": "ragweed", "assay": "Test C postemergence", "assay_type": "in vivo, Ambrosia artemisiifolia", "details": "10 days", "procedure,_shortened": "as §1"}, "pigweed, palmer [11]": {"test_system": "pigweed, palmer", "assay": "Test C preemergence", "assay_type": "in vivo, Amaranthus palmeri", "details": "0 to 100 scale (0 no effect, 100 complete control)", "procedure,_shortened": "as §1"}, "blackgrass [12]": {"test_system": "blackgrass", "assay": "Test C postemergence", "assay_type": "in vivo, Alopecurus myosuroides", "details": "10 days", "procedure,_shortened": "as §1"}, "corn [13]": {"test_system": "corn", "assay": "Test C preemergence", "assay_type": "in vivo, Zea mays", "details": "0 to 100 scale (0 no effect, 100 complete control)", "procedure,_shortened": "as §1"}, "barnyardgrass [14]": {"test_system": "barnyardgrass", "assay": "Test D flooded paddy test", "assay_type": "in vivo, Echinochloa crus-galli", "details": "250 g ai/ha, applied to paddy water, visual rating after 13 to 14 days, scale 0 to 100 (0 no effect, 100 complete control)", "procedure,_shortened": "as §2"}, "green foxtail [15]": {"test_system": "green foxtail", "assay": "Test C postemergence", "assay_type": "in vivo, Setaria viridis", "details": "10 days", "procedure,_shortened": "as §1"}, "blackgrass [16]": {"test_system": "blackgrass", "assay": "Test C preemergence", "assay_type": "in vivo, Alopecurus myosuroides", "details": "0 to 100 scale (0 no effect, 100 complete control)", "procedure,_shortened": "as §1"}, "horseweed": {"test_system": "horseweed", "assay": "Test C postemergence", "assay_type": "in vivo, Erigeron canadensis", "details": "10 days", "procedure,_shortened": "as §1"}, "ryegrass, Italian [17]": {"test_system": "ryegrass, Italian", "assay": "Test C postemergence", "assay_type": "in vivo, Lolium multiflorum", "details": "10 days", "procedure,_shortened": "as §1"}, "ryegrass, Italian [18]": {"test_system": "ryegrass, Italian", "assay": "Test C preemergence", "assay_type": "in vivo, Lolium multiflorum", "details": "0 to 100 scale (0 no effect, 100 complete control)", "procedure,_shortened": "as §1"}, "galium": {"test_system": "galium", "assay": "Test C postemergence", "assay_type": "in vivo, Galium aparine", "details": "10 days", "procedure,_shortened": "as §1"}, "corn [19]": {"test_system": "corn", "assay": "Test C postemergence", "assay_type": "in vivo, Zea mays", "details": "10 days", "procedure,_shortened": "as §1"}, "rice": {"test_system": "rice", "assay": "Test D flooded paddy test", "assay_type": "in vivo, Oryza sativa", "details": "250 g ai/ha, applied to paddy water, visual rating after 13 to 14 days, scale 0 to 100 (0 no effect, 100 complete control)", "procedure,_shortened": "as §2"}, "sedge, umbrella": {"test_system": "sedge, umbrella", "assay": "Test D flooded paddy test", "assay_type": "in vivo, Cyperus difformis", "details": "250 g ai/ha, applied to paddy water, visual rating after 13 to 14 days, scale 0 to 100 (0 no effect, 100 complete control)", "procedure,_shortened": "as §2"}, "kochia [20]": {"test_system": "kochia", "assay": "Test C preemergence", "assay_type": "in vivo, Bassia scoparia", "details": "0 to 100 scale (0 no effect, 100 complete control)", "procedure,_shortened": "as §1"}, "oat, wild [21]": {"test_system": "oat, wild", "assay": "Test C postemergence", "assay_type": "in vivo, Avena fatua", "details": "10 days", "procedure,_shortened": "as §1"}, "wheat [22]": {"test_system": "wheat", "assay": "Test C preemergence", "assay_type": "in vivo, Triticum aestivum", "details": "0 to 100 scale (0 no effect, 100 complete control)", "procedure,_shortened": "as §1"}, "barnyardgrass [23]": {"test_system": "barnyardgrass", "assay": "Test C preemergence", "assay_type": "in vivo, Echinochloa crusgalli", "details": "0 to 100 scale (0 no effect, 100 complete control)", "procedure,_shortened": "as §1"}, "[24]": {"details": "Preemergence, 500 g ai/ha, visual rating after 10 days"}, "[25]": {"details": "Test C, preemergence, 125 g ai/ha"}, "[26]": {"details": "125 g ai/ha, postemergence, 0 to 100 scale, 0 no effect, 100 complete control"}, "[27]": {"details": "Postemergence, 500 g ai/ha, visual 0 to 100 scale (0 no effect, 100 complete control)"}}, "data": [{"smiles": "Cc1ccc(-n2cnc(C(C)(C)C)n2)cc1C(=O)N1CC(C(F)(F)F)Oc2c(Cl)cccc21", "note": "(single isomer, unassigned) [Compound 192]", "values": [{"measurement": "Plant response rating, Oat, Wild", "setting": "oat, wild [1]; [24]", "result": 90}, {"measurement": "Oat, Wild plant response rating", "setting": "oat, wild [1]; [25]", "result": 40}, {"measurement": "Plant response rating, Foxtail, Green", "setting": "green foxtail [2]; [24]", "result": 100}, {"measurement": "Foxtail, Green plant response rating", "setting": "green foxtail [2]; [25]", "result": 100}, {"measurement": "Plant response rating, Soybean", "setting": "soybean [3]; [26]", "result": 100}, {"measurement": "Plant response rating, Soybean", "setting": "soybean [3]; [27]", "result": 100}, {"measurement": "Plant response rating, Kochia", "setting": "kochia [4]; [26]", "result": 80}, {"measurement": "Plant response rating, Kochia", "setting": "kochia [4]; [27]", "result": 100}, {"measurement": "Plant response rating, Pigweed, Palmer", "setting": "pigweed, palmer [5]; [26]", "result": 90}, {"measurement": "Plant response rating, Pigweed, Palmer", "setting": "pigweed, palmer [5]; [27]", "result": 100}, {"measurement": "Plant response rating, Ducksalad (Flood)", "setting": "ducksalad", "result": 0}, {"measurement": "Plant response rating, Wheat", "setting": "wheat [6]; [26]", "result": 20}, {"measurement": "Plant response rating, Wheat", "setting": "wheat [6]; [27]", "result": 20}, {"measurement": "Plant response rating, Soybean", "setting": "soybean [7]; [24]", "result": 90}, {"measurement": "Soybean plant response rating", "setting": "soybean [7]; [25]", "result": 30}, {"measurement": "Plant response rating, Barnyardgrass", "setting": "barnyardgrass [8]; [26]", "result": 20}, {"measurement": "Plant response rating, Barnyardgrass", "setting": "barnyardgrass [8]; [27]", "result": 50}, {"measurement": "Plant response rating, Ragweed", "setting": "ragweed [9]; [24]", "result": 80}, {"measurement": "Ragweed plant response rating", "setting": "ragweed [9]; [25]", "result": 10}, {"measurement": "Plant response rating, Ragweed", "setting": "ragweed [10]; [26]", "result": 90}, {"measurement": "Plant response rating, Ragweed", "setting": "ragweed [10]; [27]", "result": 100}, {"measurement": "Plant response rating, Pigweed, Palmer", "setting": "pigweed, palmer [11]; [24]", "result": 100}, {"measurement": "Pigweed, Palmer plant response rating", "setting": "pigweed, palmer [11]; [25]", "result": 90}, {"measurement": "Plant response rating, Blackgrass", "setting": "blackgrass [12]; [26]", "result": 30}, {"measurement": "Plant response rating, Blackgrass", "setting": "blackgrass [12]; [27]", "result": 30}, {"measurement": "Plant response rating, Corn", "setting": "corn [13]; [24]", "result": 20}, {"measurement": "Corn plant response rating", "setting": "corn [13]; [25]", "result": 20}, {"measurement": "Plant response rating, Barnyardgrass (Flood)", "setting": "barnyardgrass [14]", "result": 0}, {"measurement": "Plant response rating, Foxtail, Green", "setting": "green foxtail [15]; [26]", "result": 10}, {"measurement": "Plant response rating, Foxtail, Green", "setting": "green foxtail [15]; [27]", "result": 80}, {"measurement": "Plant response rating, Blackgrass", "setting": "blackgrass [16]; [24]", "result": 80}, {"measurement": "Blackgrass plant response rating", "setting": "blackgrass [16]; [25]", "result": 70}, {"measurement": "Plant response rating, Horseweed", "setting": "horseweed; [26]", "result": 0}, {"measurement": "Plant response rating, Horseweed", "setting": "horseweed; [27]", "result": 30}, {"measurement": "Plant response rating, Ryegrass, Italian", "setting": "ryegrass, Italian [17]; [26]", "result": 40}, {"measurement": "Plant response rating, Ryegrass, Italian", "setting": "ryegrass, Italian [17]; [27]", "result": 50}, {"measurement": "Plant response rating, Ryegrass, Italian", "setting": "ryegrass, Italian [18]; [24]", "result": 90}, {"measurement": "Ryegrass, Italian plant response rating", "setting": "ryegrass, Italian [18]; [25]", "result": 90}, {"measurement": "Plant response rating, Galium", "setting": "galium; [26]", "result": 100}, {"measurement": "Plant response rating, Galium", "setting": "galium; [27]", "result": 100}, {"measurement": "Plant response rating, Corn", "setting": "corn [19]; [26]", "result": 10}, {"measurement": "Plant response rating, Corn", "setting": "corn [19]; [27]", "result": 20}, {"measurement": "Plant response rating, Rice (Flood)", "setting": "rice", "result": 0}, {"measurement": "Plant response rating, Sedge, Umbrella (Flood)", "setting": "sedge, umbrella", "result": 0}, {"measurement": "Plant response rating, Kochia", "setting": "kochia [20]; [24]", "result": 100}, {"measurement": "Kochia plant response rating", "setting": "kochia [20]; [25]", "result": 60}, {"measurement": "Plant response rating, Oat, Wild", "setting": "oat, wild [21]; [26]", "result": 20}, {"measurement": "Plant response rating, Oat, Wild", "setting": "oat, wild [21]; [27]", "result": 50}, {"measurement": "Plant response rating, Wheat", "setting": "wheat [22]; [24]", "result": 30}, {"measurement": "Wheat plant response rating", "setting": "wheat [22]; [25]", "result": 0}, {"measurement": "Plant response rating, Barnyardgrass", "setting": "barnyardgrass [23]; [24]", "result": 90}, {"measurement": "Barnyardgrass plant response rating", "setting": "barnyardgrass [23]; [25]", "result": 60}]}]}
